Experimental data reported in ChEMBL document CHEMBL2021759, “Discovery of 4'-azido-2'-deoxy-2'-C-methyl cytidine and prodrugs thereof: a potent inhibitor of Hepatitis C virus replication” (Bioorg Med Chem Lett, 2012).

How the values were obtained:
Hepatitis C virus = assay: Antiviral activity against Hepatitis C virus infected in human HuH7-Rep cells assessed as inhibition of viral replication by luciferase reporter gene assay; assay type: functional, organism-based, Hepacivirus hominis; conditions: Huh-7
Rattus norvegicus [1] = assay: AUCt in Sprague-Dawley rat assessed as 4'-azido-2'-deoxy-2'-methylcytidine level at 20 umol/kg, po; assay type: ADME, organism-based, Plasma; conditions: in vivo
Rattus norvegicus [2] = assay: Tmax in Sprague-Dawley rat assessed as 4'-azido-2'-deoxy-2'-methylcytidine level at 20 umol/kg, po; assay type: ADME, organism-based; conditions: in vivo
Rattus norvegicus [3] = assay: Cmax in Sprague-Dawley rat assessed as 4'-azido-2'-deoxy-2'-methylcytidine level at 20 umol/kg, po; assay type: ADME, organism-based; design: dose 20 umol/kg, route oral; conditions: in vivo
[4] = Cytotoxicity against human HuH7 cells by CMV-luciferase reporter gene assay; assay type: cell-based, Huh-7
Rattus norvegicus [5] = assay: Apparent oral clearance in Sprague-Dawley rat assessed as 4'-azido-2'-deoxy-2'-methylcytidine level at 20 umol/kg, po; assay type: ADME, organism-based; conditions: in vivo
Rattus norvegicus [6] = assay: Oral bioavailability in Sprague-Dawley rat assessed as 4'-azido-2'-deoxy-2'-methylcytidine level at 20 umol/kg; assay type: ADME, organism-based; conditions: in vivo
Rattus norvegicus [7] = assay: AUC (0 to infinity) in Sprague-Dawley rat assessed as 4'-azido-2'-deoxy-2'-methylcytidine level at 20 umol/kg, po; assay type: ADME, organism-based, Plasma; design: dose 20 umol/kg, route oral, time infinity; conditions: in vivo
[8] = Cytotoxicity against human MT4 cells by LTR-luciferase reporter gene assay; assay type: cell-based
[9] = Intrinsic clearance in rat liver microsomes; assay type: ADME, Microsome; conditions: read-out: CLH
[10] = AUCt in Sprague-Dawley rat at 20 umol/kg, po; assay type: ADME, organism-based; conditions: plasma
[11] = Oral bioavailability in Sprague-Dawley rat at 20 umol/kg; assay type: ADME, organism-based; conditions: in vivo
[12] = Cmax in Sprague-Dawley rat at 20 umol/kg, po; assay type: ADME, organism-based; design: dose 20 umol/kg, route oral; conditions: in vivo
[13] = AUC (0 to infinity) in Sprague-Dawley rat at 20 umol/kg, po; assay type: ADME, organism-based; design: dose 20 umol/kg, time infinity, route oral; conditions: plasma
[14] = Apparent permeability across human Caco2 cells; assay type: ADME, cell-based; conditions: Caco-2
[15] = AUC (0 to infinity) in Sprague-Dawley rat at 5 umol/kg, iv; assay type: ADME, organism-based; design: dose 5 umol/kg, route intravenous, time infinity; conditions: plasma
[16] = Apparent oral clearance in Sprague-Dawley rat at 20 umol/kg, po; assay type: ADME, organism-based; conditions: in vivo
[17] = AUCt in Sprague-Dawley rat at 5 umol/kg, iv; assay type: ADME, organism-based; conditions: plasma
[18] = Tmax in Sprague-Dawley rat at 20 umol/kg, po; assay type: ADME, organism-based; conditions: in vivo
[19] = Intrinsic clearance in human liver microsomes; assay type: ADME, Microsome; conditions: read-out: CLH

SMILES	EC50 (Hepatitis C virus) [µM]	AUCt (Rattus norvegicus [1]) [µM·h]	Tmax (Rattus norvegicus [2]) [h]	Cmax (Rattus norvegicus [3]) [nM]	CL/F (Rattus norvegicus [5]) [mL/min/kg]	F (Rattus norvegicus [6]) [%]	AUC (Rattus norvegicus [7]) [µM·h]	CC50 [4] [µM]	CC50 [8] [µM]	further results
CC(C)[C@H](N)C(=O)OC[C@@]1(N=[N+]=[N-])O[C@@H](n2ccc(N)nc2=O)[C@H](C)[C@@H]1OC(=O)[C@@H](N)C(C)C.O=C(O)C(F)(F)F	1.9	1.22	1	290	247	7	1.35	> 100	–	–
CC(C)[C@H](N)C(=O)OC[C@@]1(N=[N+]=[N-])O[C@@H](n2ccc(N)nc2=O)[C@H](C)[C@@H]1O.O=C(O)C(F)(F)F	0.79	1.56	1	500	200	8	1.68	> 100	–	–
C[C@H]1[C@H](n2ccc(N)nc2=O)O[C@@](COP(=O)(N[C@@H](C)C(=O)OCc2ccccc2)Oc2cccc3ccccc23)(N=[N+]=[N-])[C@H]1O (stereo partly drawn)	3	–	–	–	–	–	–	> 100	> 32	–
C[C@H]1[C@H](n2ccc(=O)[nH]c2=O)O[C@@](CO)(N=[N+]=[N-])[C@H]1O	–	–	–	–	–	–	–	> 100	> 100	IC50 (Hepatitis C virus): > 50 µM

The next lines start with results.

EC50 (Hepatitis C virus) [µM]	AUCt (Rattus norvegicus [1]) [µM·h]	Tmax (Rattus norvegicus [2]) [h]	Cmax (Rattus norvegicus [3]) [nM]	CL/F (Rattus norvegicus [5]) [mL/min/kg]	F (Rattus norvegicus [6]) [%]	AUC (Rattus norvegicus [7]) [µM·h]	SMILES	CC50 [4] [µM]	CC50 [8] [µM]	further results
0.72	3.66	1	1140	82.2	20	4.06	CC(C)[C@H](N)C(=O)O[C@H]1[C@@H](C)[C@H](n2ccc(N)nc2=O)O[C@@]1(CO)N=[N+]=[N-].O=C(O)C(F)(F)F	> 100	–	–
6.2	–	–	–	–	–	–	C[C@H]1[C@H](n2ccc(=O)[nH]c2=O)O[C@@](COP(=O)(N[C@@H](C)C(=O)OCc2ccccc2)Oc2cccc3ccccc23)(N=[N+]=[N-])[C@H]1O (stereo partly drawn)	> 100	41	–
1.2	–	–	–	–	–	–	C[C@H]1[C@H](n2ccc(N)nc2=O)O[C@@](CO)(N=[N+]=[N-])[C@H]1O	> 98	> 98	microsomal CLint [9]: < 6 µL/min/mg; AUC(0-t) [10]: 2.66 µM·h; bioavailability [11]: 14%; Cmax [12]: 610 nM; AUC(0-inf) [13]: 2.87 µM·h; Papp [14]: 1.7 ×10⁻⁶ cm/s; AUC(0-inf) [15]: 4.98 µM·h; CL/F [16]: 119 mL/min/kg; AUC(0-t) [17]: 4.97 µM·h; Tmax [18]: 2 h; microsomal CLint [19]: < 6 µL/min/mg
6.6	12.7	1	4650	25.8	65	12.9	CC(C)C(=O)OC[C@@]1(N=[N+]=[N-])O[C@@H](n2ccc(N)nc2=O)[C@H](C)[C@@H]1OC(=O)C(C)C	> 100	> 50	Papp [14]: 7.7 ×10⁻⁶ cm/s; microsomal CLint [19]: > 300 µL/min/mg
